From patent publication US9586947B2, “Imidazoline derivatives, preparation methods thereof, and their applications in medicine” (priority 2012, dated 2017)
Read-outs that look alike come from different tables or passages of the source.

Key:
[1] = Pharmacokinetics assay in rats, intragastric administration; format: in vivo; conditions: Sprague-Dawley, rat, po, male SD rats, 5 mg/kg; for Vd/F: read-out: Apparent Distribution Volume Vz/F; for AUC: read-out: Area Under Curve AUC; for CL/F: read-out: Clearance CLz/F; for half-life: read-out: Half-Life T½ (converted); for MRT: read-out: Mean Residence Time MRT; for Cmax: read-out: Plasma Conc. Cmax
Experimental: Male rats were used as test animals. The compounds of Example 6, Example 9, Example 11, Example 13, Example 15, Example 16, Example 17, Example 44, and Example 45 were administered intragastrically to rats to determine the drug concentration in plasma at different time points by LC/MS/MS method. The pharmacokinetic behavior of the compounds of the present invention was studied and evaluated in rats.
27 healthy adult male Sprague-Dawley (SD) rats, purchased from SINO-BRITISH SIPPR/BK LAB. ANIMAL LTD., CO, Certificate No.: SCXK (Shanghai) 2008-0016, were divided into 9 groups, with 3 rats in each group.
The appropriate amount of test compounds was weighed and mixed with 0.5% CMC-Na to prepare a 0.5 mg/mL suspension by an ultrasonic method.
After an overnight fast, 27 SD rats were divided into 9 groups, and administered the compounds intragastrically at a dose of 5.0 mg/kg and an administration volume of 10 mL/kg.
Compounds of Example 6, Example 9, Example 11, Example 13, Example 15, Example 16, Example 17, Example 44, and Example 45 were administered intragastrically to rats. Blood samples (0.1 mL) were taken from the orbital sinus before administration, and at 0.5 h, 1.0 h, 2.0 h, 3.0 h, 4.0 h, 6.0 h, 8.0 h, 11.0 h, and 24.0 h after administration, stored in heparinized tubes, and centrifuged for 5 minutes at 3,500 rpm to separate blood plasma. The plasma samples were stored at −20° C. The rats were fed 2 hours after administration.
The concentration of the different test compounds in rat plasma after intragastrically administering the test compounds was determined by LC-MS/MS method. The linearity of the method is 1.00-2000 ng/ml. Plasma samples were analyzed after protein precipitation was accomplished by the addition of methanol.

[2] = test system: PSA secretion of LNCaP-AR cells (AR-overexpressed LNCaP cells); test: Agonist activity on PSA secretion of LNCaP-AR cells; format: cell-based; conditions: 96 h, 4 days, OD value (test compounds)/OD value (blank control), blank control 100
Experimental: The following in vitro assay was performed to determine the activity of a high concentration of the compounds of the present invention for agitating the PSA secretion of LNCaP-AR cells (AR-overexpressed LNCaP cells, referred to as “LNCaP-AR cells” for short, constructed by a retroviral transfection method).
LNCaP-AR cells were subcultured in cell culture medium, resuspended in active carbon culture medium, and then inoculated into a 96-well plate (100 μl/well) with an inoculation density of 5×10^4 cells/well.
(§1) The test compounds were dissolved in DMSO (dimethyl sulfoxide) and prepared as a 10 mM stock solution. When used, the stock solution was diluted with DMSO into the two concentrations of 2 mM and 0.6 mM. Then, the diluted concentrations were each diluted with 20× active carbon culture medium, in order to ensure DMSO concentration in each culture system was 0.5%. Diluted test compounds remained to be tested.
10 μl of diluted test compounds were added to a 96-well plate and mixed gently. 10 μl of 0.5% DMSO diluted with active carbon culture medium was added to the blank control group.
After 4 days of incubation, 60 μl of cell cultural supernatants were collected, and the OD value of PSA per well was measured on a NOVO Star microplate reader using PSA kit (abnova, KA0208).
Agonist activity of the test compounds of the present invention on PSA secretion of LNCaP-AR cells was evaluated by the percentage of OD value (test compounds)/OD value (blank control). When the percentage value is greater than 100, the test compounds have agonist activity on PSA secretion of LNCaP-AR cells compared to the blank control. Conversely, when the percentage value is less than 100, the test compounds have no agonist activity on PSA secretion of LNCaP-AR cells compared to the blank control.

[3] = test system: PSA secretion of LNCaP cells; test: Inhibitory activity on PSA secretion of LNCaP cells; format: cell-based; conditions: Homo sapiens, 96 h, read-out: IC50 (inhibition of PSA secretion of LNCaP cells)
Experimental: The following in vitro assay was performed to determine the activity of the compounds of the present invention for inhibiting prostate specific antigen (PSA) secretion of LNCaP cells.
(11). Testosterone culture medium: RIPM 1640 culture medium, 10% CS-FBS, 1% Pen Strep, 1 nM testosterone
LNCaP cells were subcultured in cell culture medium, resuspended in active carbon culture medium, and then inoculated into a 96-well plate (100 μl/well) with an inoculation density of 5×10^4 cells/well.
as §1, with “with 5×DMSO” for “with DMSO into the two concentrations of 2 mM”, “and then diluted with a threefold gradient to obtain 8 gradient concentrations.” for “and 0.6 mM.”, “the 8 gradient” for “the diluted”, “20× testosterone” for “20× active carbon”
10 μl of diluted test compounds were added to a 96-well plate and mixed gently. 10 μl of 0.5% DMSO diluted with active carbon culture medium was added to the blank group, and 10 μl of 0.5% DMSO diluted with testosterone culture medium was added to the control group. The 96-well plate was cultured in an incubator under the conditions of 37° C. and 5% CO2.
After 4 days of incubation, 60 μl of cell cultural supernatants were collected, and the OD450 value per well was measured on a NOVO Star microplate reader using PSA kit (Abnova, KA0208).
(§2) IC50 values were calculated from the data of the inhibition rates of the test compounds at various concentrations.

LNCaP cells = test: Proliferation inhibition of LNCaP cells (CCK-8); format: cell-based; conditions: Homo sapiens, 144 h, cultured 3 + 3 days, CCK-8, OD at 450 nm
Experimental: The following in vitro assay was performed to determine the activity of the compounds of the present invention for inhibiting the proliferation of LNCaP cells.
(1). Cell counting reagent CCK-8 (DOJINDO, CK04)
See experimental procedure from Test Example 1.
After LNCaP cells were cultured for 3 days, the culture medium, test compounds, blank group, and control group were renewed with half of the liquid volume, and were cultured for another 3 days. Then, all 96-well plates were mixed gently with 10 μl of CCK-8 and cultured in an incubator for 2-3 hours under the conditions of 37° C. and 5% CO2. The OD value per well was measured at 450 nm on a Victor3 microplate reader.
as §2

[4] = LNCaP cells, 1 nM testosterone medium, 4 days of incubation, PSA kit OD450

SMILES | Vd/F ([1]; in vivo) | AUC ([1]; in vivo) | CL/F ([1]; in vivo) | half-life ([1]; in vivo) | MRT ([1]; in vivo) | Cmax ([1]; in vivo) | activity at 3 µM [2] | activity at 10 µM [2] | IC50 ([3]; LNCaP) | IC50 [3, 4] | IC50 (LNCaP cells) | Vd/F ([1]; plasma) | AUC ([1]; plasma) | CL/F ([1]; plasma) | half-life ([1]; plasma) | MRT ([1]; plasma) | Cmax ([1]; plasma)
CC1(C)C(=O)N(c2ccc(C#N)c(C(F)(F)F)c2)C(=S)N1c1ccc(OCC2(N)CC2)c(F)c1 [Example 6, 4-(3-(4-((1-Aminocyclopropyl)methoxy)-3-fluorophenyl)-4,4-dimethyl-5-oxo-2-thioxoimidazolidin-1-yl)-2-(trifluoromethyl)benzonitrile] | 6.02 ± 1.69 L/kg | 16800 ± 7480 ng·h/mL | 5.75 ± 2.44 mL/min/kg | 13.1 ± 4.6 h | 17.8 ± 6.2 h | 1200 ± 330 ng/mL | 93.2% | 100% | 24 nM |  |  |  |  |  |  |  | 
CC1(C)C(=O)N(c2ccc(C#N)c(C(F)(F)F)c2)C(=S)N1c1ccc(O[C@@H]2COC[C@H]2O)c(F)c1 [Example 8, 4-(3-(3-fluoro-4-(((3R,4R)-4-hydroxytetrahydrofuran-3-yl)oxy)phenyl)-4,4-dimethyl-5-oxo-2-thioxoimidazolidin-1-yl)-2-(trifluoromethyl)benzonitrile] |  |  |  |  |  |  | 65% | 99.5% | 21 nM |  |  |  |  |  |  |  | 
CC1(C)C(=O)N(c2ccc(C#N)c(C(F)(F)F)c2)C(=S)N1c1ccc(O[C@H]2COC[C@@H]2O)c(F)c1 [Example 9, 4-(3-(3-fluoro-4-(((3S,4S)-4-hydroxytetrahydrofuran-3-yl)oxy)phenyl)-4,4-dimethyl-5-oxo-2-thioxoimidazolidin-1-yl)-2-(trifluoromethyl)benzonitrile] | 4.59 ± 0.556 L/kg | 18800 ± 3300 ng·h/mL | 4.52 ± 0.77 mL/min/kg | 11.8 ± 1.1 h | 18.3 ± 1.9 h | 772 ± 83 ng/mL | 90.8% | 85% | 26 nM |  |  |  |  |  |  |  | 
CC1(C)C(=O)N(c2ccc(C#N)c(C(F)(F)F)c2)C(=S)N1c1ccc(OCCO)nc1 [Example 10, 4-(3-(6-(2-Hydroxyethoxy)pyridin-3-yl)-4,4-dimethyl-5-oxo-2-thioxoimidazolidin-1-yl)-2-(trifluoromethyl)benzonitrile] |  |  |  |  |  |  | 74.7% | 68.1% |  | 23 nM | 131 nM |  |  |  |  |  | 
CC1(C)C(=O)N(c2ccc(C#N)c(C(F)(F)F)c2)C(=S)N1c1ccc(OCCO)c(F)c1 [Example 12, 4-(3-(3-Fluoro-4-(2-hydroxyethoxy)phenyl)-4,4-dimethyl-5-oxo-2-thioxoimidazolidin-1-yl)-2-(trifluoromethyl)benzonitrile] |  |  |  |  |  |  | 69.6% | 90.7% |  | 33 nM | 146 nM |  |  |  |  |  | 
CC1(C)C(=O)N(c2ccc(C#N)c(C(F)(F)F)c2)C(=S)N1c1ccc(OCC(O)CO)c(F)c1 (centres unmarked) [Example 13, 4-(3-(4-(2,3-Dihydroxypropoxy)-3-fluorophenyl)-4,4-dimethyl-5-oxo-2-thioxoimidazolidin-1-yl)-2-(trifluoromethyl)benzonitrile] | 2.31 ± 0.553 L/kg | 26500 ± 7380 ng·h/mL | 3.35 ± 1.1 mL/min/kg | 8.1 ± 0.65 h | 13.1 ± 1.5 h | 1550 ± 197 ng/mL | 53.6% | 71.5% | 88 nM |  |  |  |  |  |  |  | 
CC1(C)C(=O)N(c2ccc(C#N)c(C(F)(F)F)c2)C(=S)N1c1ccc(O[C@@H]2COC[C@H]2O)cc1 [Example 15, 4-(3-(4-(((3R,4R)-4-hydroxytetrahydrofuran-3-yl)oxy)phenyl)-4,4-dimethyl-5-oxo-2-thioxoimidazolidin-1-yl)-2-(trifluoromethyl)benzonitrile] | 3.97 ± 0.341 L/kg | 21400 ± 4100 ng·h/mL | 3.99 ± 0.75 mL/min/kg | 11.7 ± 1.7 h | 18.2 ± 2.3 h | 999 ± 172 ng/mL | 77.5% | 84.8% | 52 nM |  |  |  |  |  |  |  | 
CC1(C)C(=O)N(c2ccc(C#N)c(C(F)(F)F)c2)C(=S)N1c1ccc(OC[C@@H](O)CO)cc1 [Example 44, (S)-4-(3-(4-(2,3-Dihydroxypropoxy)phenyl)-4,4-dimethyl-5-oxo-2-thioxoimidazolidin-1-yl)-2-(trifluoromethyl)benzonitrile] |  |  |  |  |  |  | 77.2% | 92.7% |  | 22 nM | 33 nM | 2.45 ± 0.376 L/kg | 19300 ± 4170 ng·h/mL | 4.47 ± 1.08 mL/min/kg | 6.41 ± 0.6 h | 10.5 ± 1.3 h | 1300 ± 275 ng/mL
CC1(C)C(=O)N(c2ccc(C#N)c(C(F)(F)F)c2)C(=S)N1c1ccc(OC[C@H](O)CO)cc1 [Example 45, (R)-4-(3-(4-(2,3-Dihydroxypropoxy)phenyl)-4,4-dimethyl-5-oxo-2-thioxoimidazolidin-1-yl)-2-(trifluoromethyl)benzonitrile] |  |  |  |  |  |  |  |  |  | 35 nM | 74 nM | 3.27 ± 0.261 L/kg | 13000 ± 365 ng·h/mL | 6.4 ± 0.18 mL/min/kg | 5.9 ± 0.3 h | 10 ± 0.6 h | 980 ± 173 ng/mL
